Test results published in patent publication US8952024B2, “Herbicidal pyrimidone derivatives” (E I du Pont de Nemours and Company, priority 2009, dated 2015).

Tests used:
Assay type in all cases: in vivo
[1] = system: barnyardgrass (Echinochloa crus-galli); assay: Test A pre-/postemergence plant response
Method in brief: (§1)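 Greenhouse pots of loam/sand received directed preemergence soil sprays or postemergence sprays (plants 2–10 cm, 1–2 leaf stage), compounds formulated in non-phytotoxic solvent with surfactant. Injury was rated visually versus untreated controls after about ten days on a 0 (no effect) to 100 (complete control) scale.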

corn (Zea mays) = assay: Test A pre-/postemergence plant response
Method in brief: as §1

[2] = system: giant foxtail (Setaria faberii); assay: Test A pre-/postemergence plant response
Method in brief: as §1

[3] = system: large crabgrass (Digitaria sanguinalis); assay: Test A pre-/postemergence plant response
Method in brief: as §1

[4] = system: morningglory (Ipomoea spp.); assay: Test A pre-/postemergence plant response
Method in brief: as §1

[5] = system: pigweed (Amaranthus retroflexus); assay: Test A pre-/postemergence plant response
Method in brief: as §1

[6] = system: wheat (Triticum aestivum); assay: Test A pre-/postemergence plant response
Method in brief: as §1

[7] = system: velvetleaf (Abutilon theophrasti); assay: Test A pre-/postemergence plant response
Method in brief: as §1

[8] = system: barnyardgrass (Echinochloa crus-galli); assay: Test B flooded paddy test; settings: for Plant response rating, Barnyardgrass: Flood (flooded paddy test), 13 to 15 days; for Barnyardgrass plant response rating: Flood, 31 g ai/ha, scale 0 to 100 (0 no effect, 100 complete control)
Method in brief: (§2)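 Seedlings reaching 2 leaves are flooded 3 cm deep; test material is delivered to that water, which stays at the same depth. Plants remain in a greenhouse 13–15 days and are then scored by eye versus controls from 0 to 100.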

[9] = system: umbrella sedge (Cyperus difformis); assay: Test B flooded paddy test; settings: for Plant response rating, Sedge, Umbrella: Flood (flooded paddy test), 13 to 15 days; for Sedge, Umbrella plant response rating: Flood, 31 g ai/ha, scale 0 to 100 (0 no effect, 100 complete control)
Method in brief: as §2

rice (Oryza sativa) = assay: Test B flooded paddy test; settings: for Plant response rating, Rice: Flood (flooded paddy test), 13 to 15 days; for Rice plant response rating: Flood, 31 g ai/ha, scale 0 to 100 (0 no effect, 100 complete control)
Method in brief: as §2

[10] = system: ducksalad (Heteranthera limosa); assay: Test B flooded paddy test; settings: for Plant response rating, Ducksalad: Flood (flooded paddy test), 13 to 15 days; for Ducksalad plant response rating: Flood, 31 g ai/ha, scale 0 to 100 (0 no effect, 100 complete control)
Method in brief: as §2

[11] = Postemergence, 125 g ai/ha, 0 to 100 scale where 0 is no effect and 100 is complete control
[12] = Postemergence, 500 g ai/ha, visual injury, 0 to 100 scale (0 no effect, 100 complete control), approx. ten days
[13] = Preemergence, 125 g ai/ha, 0 to 100 scale, 0 = no effect, 100 = complete control
[14] = Preemergence, 500 g ai/ha, 0 to 100 scale, 0 = no effect, 100 = complete control
[15] = 125 g ai/ha, scale 0 to 100, 0 is no effect, 100 is complete control
[16] = Postemergence, 500 g ai/ha, 0 to 100 scale, 0 = no effect, 100 = complete control, approx. ten days
[17] = Preemergence, 500 g ai/ha, visual injury, 0 to 100 scale (0 no effect, 100 complete control), approx. ten days
[18] = 250 g ai/ha, flooded paddy test, visual rating on 0 to 100 scale (0 no effect, 100 complete control) after 13 to 15 days
[19] = 62 g ai/ha, scale of 0 to 100 where 0 is no effect and 100 is complete control

Question: Which “Plant response rating, Barnyardgrass” value [1, 11] does the source give for `Cc1cc(F)ccc1-n1c(-c2cccc(Cl)c2)ncc(C(=O)C2=C(O)CCCC2=O)c1=O` [Compound 167] here?
Answer: 60

Question: What about the “Barnyardgrass plant response rating” value [1, 12] of the same molecule?
Answer: 100

Question: And the “Plant response rating, Barnyardgrass” value [1, 13]?
Answer: 0

Question: What about the “Plant response rating, Barnyardgrass” value [1, 14] of the same molecule?
Answer: 30

Question: And the “Plant response rating, Corn” value (corn (Zea mays); [11])?
Answer: 30

Question: And the “Corn plant response rating” value (corn (Zea mays); [12])?
Answer: 30

Question: What about the “Plant response rating, Corn” value (corn (Zea mays); [13]) of the same molecule?
Answer: 0

Question: What about the “Plant response rating, Corn” value (corn (Zea mays); [14]) of the same molecule?
Answer: 0

Question: And the “Plant response rating, Foxtail, Giant” value [2, 11]?
Answer: 90

Question: What about the “Foxtail, Giant plant response rating” value [2, 12] of the same molecule?
Answer: 90

Question: What about the “Plant response rating, Foxtail, Giant” value [2, 13] of the same molecule?
Answer: 10

Question: What about the “Plant response rating, Foxtail, Giant” value [2, 14] of the same molecule?
Answer: 50

Question: And the “Plant response rating, Crabgrass, Large” value [3, 11]?
Answer: 60

Question: What about the “Crabgrass, Large plant response rating” value [3, 12] of the same molecule?
Answer: 90

Question: What about the “Plant response rating, Crabgrass, Large” value [3, 13] of the same molecule?
Answer: 20

Question: And the “Plant response rating, Crabgrass, Large” value [3, 14]?
Answer: 90

Question: And the “Plant response rating, Morningglory” value [4, 11]?
Answer: 60

Question: And the “Morningglory plant response rating” value [4, 12]?
Answer: 100

Question: And the “Plant response rating, Morningglory” value [4, 13]?
Answer: 0

Question: And the “Plant response rating, Morningglory” value [4, 14]?
Answer: 0

Question: And the “Plant response rating, Pigweed” value [5, 11]?
Answer: 90

Question: What about the “Pigweed plant response rating” value [5, 12] of the same molecule?
Answer: 100

Question: And the “Plant response rating, Pigweed” value [5, 13]?
Answer: 10

Question: And the “Plant response rating, Pigweed” value [5, 14]?
Answer: 90

Question: And the “Plant response rating, Wheat” value [6, 11]?
Answer: 0

Question: And the “Wheat plant response rating” value [6, 12]?
Answer: 0

Question: What about the “Plant response rating, Wheat” value [6, 13] of the same molecule?
Answer: 0

Question: What about the “Plant response rating, Wheat” value [6, 14] of the same molecule?
Answer: 0

Question: What about the “Plant response rating, Velvetleaf” value [7, 11] of the same molecule?
Answer: 100

Question: And the “Velvetleaf plant response rating” value [7, 12]?
Answer: 100

Question: What about the “Plant response rating, Velvetleaf” value [7, 13] of the same molecule?
Answer: 70

Question: And the “Plant response rating, Velvetleaf” value [7, 14]?
Answer: 100

Question: What about the “Plant response rating, Barnyardgrass” value [8, 15] of the same molecule?
Answer: 20

Question: And the “Barnyardgrass plant response rating” value [8]?
Answer: 0

Question: And the “Plant response rating, Sedge, Umbrella” value [9, 15]?
Answer: 60

Question: What about the “Sedge, Umbrella plant response rating” value [9] of the same molecule?
Answer: 20

Question: And the “Plant response rating, Rice” value (rice (Oryza sativa); [15])?
Answer: 0

Question: And the “Rice plant response rating” value (rice (Oryza sativa))?
Answer: 0

Question: What about the “Plant response rating, Ducksalad” value [10, 15] of the same molecule?
Answer: 70

Question: And the “Ducksalad plant response rating” value [10]?
Answer: 0

Question: `Cc1ccc(Cl)cc1-n1c(-c2cccc(Cl)c2)ncc(C(=O)C2=C(O)CCCC2=O)c1=O` [Compound 148] was tested. Which “Plant response rating, Barnyardgrass” value [1, 11] did it give?
Answer: 90

Question: And the “Plant response rating, Barnyardgrass” value [1, 16]?
Answer: 100

Question: What about the “Plant response rating, Barnyardgrass” value [1, 13] of the same molecule?
Answer: 10

Question: And the “Plant response rating, Barnyardgrass” value [1, 17]?
Answer: 30

Question: What about the “Plant response rating, Corn” value (corn (Zea mays); [11]) of the same molecule?
Answer: 0

Question: And the “Plant response rating, Corn” value (corn (Zea mays); [16])?
Answer: 60

Question: What about the “Plant response rating, Corn” value (corn (Zea mays); [13]) of the same molecule?
Answer: 0

Question: What about the “Plant response rating, Corn” value (corn (Zea mays); [17]) of the same molecule?
Answer: 0

Question: And the “Plant response rating, Foxtail, Giant” value [2, 11]?
Answer: 60

Question: What about the “Plant response rating, Foxtail, Giant” value [2, 16] of the same molecule?
Answer: 90

Question: What about the “Plant response rating, Foxtail, Giant” value [2, 13] of the same molecule?
Answer: 0

Question: And the “Plant response rating, Foxtail, Giant” value [2, 17]?
Answer: 10

Question: And the “Plant response rating, Crabgrass, Large” value [3, 11]?
Answer: 70

Question: And the “Plant response rating, Crabgrass, Large” value [3, 16]?
Answer: 90

Question: What about the “Plant response rating, Crabgrass, Large” value [3, 13] of the same molecule?
Answer: 0

Question: What about the “Plant response rating, Crabgrass, Large” value [3, 17] of the same molecule?
Answer: 50

Question: And the “Plant response rating, Morningglory” value [4, 11]?
Answer: 100

Question: And the “Plant response rating, Morningglory” value [4, 16]?
Answer: 100

Question: What about the “Plant response rating, Morningglory” value [4, 13] of the same molecule?
Answer: 0

Question: And the “Plant response rating, Morningglory” value [4, 17]?
Answer: 0

Question: What about the “Plant response rating, Pigweed” value [5, 11] of the same molecule?
Answer: 90

Question: What about the “Plant response rating, Pigweed” value [5, 16] of the same molecule?
Answer: 100

Question: What about the “Plant response rating, Pigweed” value [5, 13] of the same molecule?
Answer: 0

Question: What about the “Plant response rating, Pigweed” value [5, 17] of the same molecule?
Answer: 60

Question: And the “Plant response rating, Wheat” value [6, 11]?
Answer: 0

Question: What about the “Plant response rating, Wheat” value [6, 16] of the same molecule?
Answer: 0

Question: And the “Plant response rating, Wheat” value [6, 13]?
Answer: 0

Question: And the “Plant response rating, Wheat” value [6, 14]?
Answer: 0

Question: And the “Plant response rating, Velvetleaf” value [7, 11]?
Answer: 100

Question: What about the “Plant response rating, Velvetleaf” value [7, 16] of the same molecule?
Answer: 100

Question: And the “Plant response rating, Velvetleaf” value [7, 13]?
Answer: 30

Question: What about the “Plant response rating, Velvetleaf” value [7, 14] of the same molecule?
Answer: 80

Question: What about the “Plant response rating, Flood, Barnyardgrass” value [8, 18] of the same molecule?
Answer: 50

Question: What about the “Plant response rating, Barnyardgrass” value [8, 19] of the same molecule?
Answer: 0

Question: What about the “Plant response rating, Barnyardgrass” value [8, 15] of the same molecule?
Answer: 15

Question: What about the “Barnyardgrass plant response rating” value [8] of the same molecule?
Answer: 0

Question: What about the “Plant response rating, Flood, Sedge, Umbrella” value [9, 18] of the same molecule?
Answer: 95

Question: What about the “Plant response rating, Sedge, Umbrella” value [9, 19] of the same molecule?
Answer: 80

Question: What about the “Plant response rating, Sedge, Umbrella” value [9, 15] of the same molecule?
Answer: 85

Question: And the “Sedge, Umbrella plant response rating” value [9]?
Answer: 80

Question: What about the “Plant response rating, Flood, Rice” value (rice (Oryza sativa); [18]) of the same molecule?
Answer: 50

Question: And the “Plant response rating, Rice” value (rice (Oryza sativa); [19])?
Answer: 10

Question: And the “Plant response rating, Rice” value (rice (Oryza sativa); [15])?
Answer: 20

Question: And the “Rice plant response rating” value (rice (Oryza sativa))?
Answer: 20

Question: And the “Plant response rating, Flood, Ducksalad” value [10, 18]?
Answer: 100

Question: And the “Plant response rating, Ducksalad” value [10, 19]?
Answer: 90

Question: And the “Plant response rating, Ducksalad” value [10, 15]?
Answer: 90

Question: And the “Ducksalad plant response rating” value [10]?
Answer: 90
